Test results: PubChem BioAssay AID1963864 (Molecular Pharmacology Branch, DTP, NCI, 2024)

System: KRAS PDC multicell spheroid viability
Experiment: Anticancer human tumor 521955-158-R6-J3-PDC patient-derived pancreatic carcinoma cell line growth inhibition [KRAS2]
Settings: for viability, T/C: stronger effect = lower value
Summary of the method: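 KRAS-mutant tumor cells were grown as spheroids with HUVEC endothelial cells and human MSCs as stroma. Targeted agents were tested alone and with KRAS pathway inhibitors. Doses started at or near clinical Cmax, or 10 microM, descending half-log.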

[1] = curve of first compound, second compound 0.1 µM
[2] = curve of first compound, second compound 0.316 µM
[3] = curve of first compound, second compound 1 µM
[4] = curve of first compound, second compound 3.16 µM
[5] = curve of first compound, second compound 10 µM
[6] = second compound 0.1 µM, first compound 0.0316 µM
[7] = second compound 0.1 µM, first compound 0.1 µM
[8] = second compound 0.1 µM, first compound 0.316 µM
[9] = second compound 0.1 µM, first compound 1 µM
[10] = second compound 0.1 µM, first compound 3.16 µM
[11] = second compound 0.316 µM, first compound 0.0316 µM
[12] = second compound 0.316 µM, first compound 0.1 µM
[13] = second compound 0.316 µM, first compound 0.316 µM
[14] = second compound 0.316 µM, first compound 1 µM
[15] = second compound 0.316 µM, first compound 3.16 µM
[16] = second compound 1 µM, first compound 0.0316 µM
[17] = second compound 1 µM, first compound 0.1 µM
[18] = second compound 1 µM, first compound 0.316 µM
[19] = second compound 1 µM, first compound 1 µM
[20] = second compound 1 µM, first compound 3.16 µM
[21] = second compound 3.16 µM, first compound 0.0316 µM
[22] = second compound 3.16 µM, first compound 0.1 µM
[23] = second compound 3.16 µM, first compound 0.316 µM
[24] = second compound 3.16 µM, first compound 1 µM
[25] = second compound 3.16 µM, first compound 3.16 µM
[26] = second compound 10 µM, first compound 0.0316 µM
[27] = second compound 10 µM, first compound 0.1 µM
[28] = second compound 10 µM, first compound 0.316 µM
[29] = second compound 10 µM, first compound 1 µM
[30] = second compound 10 µM, first compound 3.16 µM
[31] = second compound 0.1 µM, first compound 10 µM
[32] = second compound 0.316 µM, first compound 10 µM
[33] = second compound 1 µM, first compound 10 µM
[34] = second compound 3.16 µM, first compound 10 µM
[35] = second compound 10 µM, first compound 10 µM
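Note: drug exposure lasted seven days.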
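Throughout, for viability, T/C: 100% = DMSO vehicle wells and lower means fewer viable cells.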

Compound | IC50 [1] [µM] | IC50 [2] [µM] | IC50 [3] [µM] | IC50 [4] [µM] | viability, T/C [6] [%] | viability, T/C [7] [%] | viability, T/C [8] [%] | viability, T/C [9] [%] | viability, T/C [10] [%] | viability, T/C [11] [%] | viability, T/C [12] [%] | viability, T/C [13] [%] | viability, T/C [14] [%] | viability, T/C [15] [%] | viability, T/C [16] [%] | viability, T/C [17] [%] | viability, T/C [18] [%] | viability, T/C [19] [%] | viability, T/C [20] [%] | viability, T/C [21] [%] | also measured
CC(=O)OC12COC1CC(O)C1(C)C(=O)C(O)C3=C(C)C(OC(=O)C(O)C(NC(=O)OC(C)(C)C)c4ccccc4)CC(O)(C(OC(=O)c4ccccc4)C21)C3(C)C (configuration not stated) + COc1cc2nc(C)nc(NC(C)c3cc(N)cc(C(F)(F)F)c3)c2cc1OC1CCOC1 | > 3.16 | > 3.16 | > 3.16 | > 3.16 | 74.6 | 69.7 | 77.8 | 85.7 | 114 | 66.5 | 70.2 | 60.3 | 90.7 | 117 | 67.3 | 66.5 | 78.5 | 86.2 | 106 | 61.3 | IC50 [5]: > 3.16 µM; viability, T/C (second compound 0.1 µM, first compound 0.01 µM): 78.7%; viability, T/C (second compound 0.316 µM, first compound 0.01 µM): 66.3%; viability, T/C (second compound 1 µM, first compound 0.01 µM): 75.6%; viability, T/C (second compound 3.16 µM, first compound 0.01 µM): 52.6%; viability, T/C [22]: 55.7%; viability, T/C [23]: 70%; viability, T/C [24]: 111%; viability, T/C [25]: 120%; viability, T/C (second compound 10 µM, first compound 0.01 µM): 68.5%; viability, T/C [26]: 62.2%; viability, T/C [27]: 72.6%; viability, T/C [28]: 84.6%; viability, T/C [29]: 102%; viability, T/C [30]: 120%
CC(C)NCC(C(=O)N1CCN(c2ncnc3c2C(C)CC3O)CC1)c1ccc(Cl)cc1 (configuration not stated) + C=CC(=O)N1CCN(c2nc(=O)n(-c3c(C)ccnc3C(C)C)c3nc(-c4c(O)cccc4F)c(F)cc23)C(C)C1 | > 10 | > 10 | > 10 | > 10 | 90.8 | 90.4 | 74.5 | 76.2 | 79.5 | 94.4 | 89 | 72.5 | 81.3 | 79.8 | 93.5 | 83.4 | 75.8 | 69.7 | 66.9 | 85.7 | IC50 [5]: 0.683 µM; viability, T/C [31]: 65.7%; viability, T/C [32]: 58.6%; viability, T/C [33]: 65.5%; viability, T/C [22]: 72%; viability, T/C [23]: 66.5%; viability, T/C [24]: 64.9%; viability, T/C [25]: 57.4%; viability, T/C [34]: 57.4%; viability, T/C [26]: 75.3%; viability, T/C [27]: 63.2%; viability, T/C [28]: 54.6%; viability, T/C [29]: 43.3%; viability, T/C [30]: 50.3%; viability, T/C [35]: 43.7%
CN(C)C/C=C/C(=O)Nc1cc2c(Nc3ccc(F)c(Cl)c3)ncnc2cc1O[C@H]1CCOC1 | – | – | – | – | – | – | – | – | – | – | – | – | – | – | – | – | – | – | – | – | viability, T/C (compound 0.000316 µM): 93.6% [middle of 5 runs]; viability, T/C (compound 0.001 µM): 82.4% [middle of 5 runs]; viability, T/C (compound 0.00316 µM): 81.6% [middle of 5 runs]; viability, T/C (compound 0.01 µM): 68.3% [middle of 5 runs]; viability, T/C (compound 0.0316 µM): 62.6% [middle of 5 runs]; viability, T/C (compound 0.1 µM): 63.5% [middle of 5 runs]; IC50 (curve of compound): > 0.1 µM
CCNC(=O)CC1N=C(c2ccc(Cl)cc2)c2cc(OC)ccc2-n2c(C)nnc21 (configuration not stated) + C=CC(=O)N1CCN(c2nc(OCC3CCCN3C)nc3c2CCN(c2cccc4cccc(C)c24)C3)CC1CC#N | > 10 | > 10 | > 10 | 0.101 | 88.6 | 102 | 78.4 | 69.3 | 73.1 | 101 | 93.2 | 76 | 74.5 | 77.1 | 86.6 | 83.9 | 77.8 | 62.2 | 69.6 | 47 | IC50 (curve of first compound, second compound 0.0316 µM): > 10 µM; viability, T/C (second compound 0.0316 µM, first compound 0.0316 µM): 106%; viability, T/C (second compound 0.0316 µM, first compound 0.1 µM): 87.1%; viability, T/C (second compound 0.0316 µM, first compound 0.316 µM): 64.3%; viability, T/C (second compound 0.0316 µM, first compound 1 µM): 74.9%; viability, T/C (second compound 0.0316 µM, first compound 3.16 µM): 83.2%; viability, T/C (second compound 0.0316 µM, first compound 10 µM): 76.6%; viability, T/C [31]: 75.9%; viability, T/C [32]: 69.2%; viability, T/C [33]: 81%; viability, T/C [22]: 53.1%; viability, T/C [23]: 30.5%; viability, T/C [24]: 1.65%; viability, T/C [25]: 31%; viability, T/C [34]: 35.1%
Cn1ncnc1[C@H]1c2n[nH]c(=O)c3cc(F)cc(c23)N[C@@H]1c1ccc(F)cc1 | – | – | – | – | – | – | – | – | – | – | – | – | – | – | – | – | – | – | – | – | viability, T/C (compound 0.000316 µM): 91.8% [middle of 5 runs]; viability, T/C (compound 0.001 µM): 95.2% [middle of 5 runs]; viability, T/C (compound 0.01 µM): 104% [middle of 5 runs]; viability, T/C (compound 0.1 µM): 89.8% [middle of 5 runs]; IC50 (curve of compound): > 0.1 µM
O=C(c1cc(Cc2n[nH]c(=O)c3ccccc23)ccc1F)N1CCN(C(=O)C2CC2)CC1 + CC1OCC2(CCN(c3cnc(Sc4ccnc(N)c4Cl)c(N)n3)CC2)C1N | > 10 | > 10 | > 10 | > 10 | 83 | 79.6 | 75.8 | 69.6 | 73.5 | 83.8 | 85.8 | 84.1 | 74.8 | 66.2 | 75.8 | 78.2 | 81 | 76 | 71.9 | 96 | IC50 [5]: > 10 µM; viability, T/C [31]: 84.1%; viability, T/C [32]: 69.5%; viability, T/C [33]: 75.9%; viability, T/C [22]: 98.6%; viability, T/C [23]: 88%; viability, T/C [24]: 75.9%; viability, T/C [25]: 78.3%; viability, T/C [34]: 72.1%; viability, T/C [26]: 85.3%; viability, T/C [27]: 85.6%; viability, T/C [28]: 61.5%; viability, T/C [29]: 70.3%; viability, T/C [30]: 70.8%; viability, T/C [35]: 63.9%
COc1cc(Nc2ncc3c(n2)-c2ccc(Cl)cc2C(c2c(F)cccc2OC)=NC3)ccc1C(=O)O + CC1OCC2(CCN(c3cnc(Sc4ccnc(N)c4Cl)c(N)n3)CC2)C1N | > 10 | > 10 | > 10 | > 10 | 101 | 101 | 99.8 | 82.2 | 99.8 | 97.1 | 95.1 | 95.6 | 86.6 | 81.3 | 102 | 98.5 | 88.1 | 91.7 | 90.9 | 103 | IC50 [5]: > 10 µM; viability, T/C [31]: 95.8%; viability, T/C [32]: 87.9%; viability, T/C [33]: 98%; viability, T/C [22]: 105%; viability, T/C [23]: 97.9%; viability, T/C [24]: 103%; viability, T/C [25]: 104%; viability, T/C [34]: 93.4%; viability, T/C [26]: 113%; viability, T/C [27]: 101%; viability, T/C [28]: 103%; viability, T/C [29]: 96.5%; viability, T/C [30]: 103%; viability, T/C [35]: 91.5%
